This is an account of results in the OPERA property sets (Mansouri et al. 2018).

Structures are written as SMILES.

`NC(=O)c1cccs1`: the melting point – broadly, the temperature of the solid-liquid transition – was 182 °C.
As to `CCCCCC#CC(=O)OC`, the boiling point – broadly, the temperature of boiling at a given pressure – was found to be 218 °C.
`CCCCCCCCCC(=O)CCCCCCCCC` yielded a melting point of 65.5 °C.
In the case of `CCCCCCCCCC(=O)O`, the boiling point stood at 269 °C, the log10 vapour pressure (mmHg) is -3.44, the melting point came to 31.9 °C and the ready biodegradability entry is on record as “readily biodegradable”.
`Cc1nc(NS(=O)(=O)c2ccc(N)cc2)oc1C` registered a melting point of 193 °C.
As to `C[C@@H]1CC[C@H](C)c2ccccc21`, the boiling point is 226 °C.
For `CCCCNC(=O)NS(=O)(=O)c1ccccc1`, the melting point was found to be 131 °C.
Consider `CCCCCCCCCCCCCCOC(=O)CCCCCCCCCCCCC`, for which the ready biodegradability result is given as “readily biodegradable”.
`Brc1cccc2ccccc12`: the boiling point was found to be 281 °C, the log10 vapour pressure (mmHg) was -2.01 and the melting point was -1.8 °C.
Taken in the same sequence, the figures for `C=CC(C)(C)CC` were 77.5 °C, 2.02 and -134 °C.
Take `C=CCC(C(=O)O)C(=O)O`: the melting point was 105 °C.
In the case of `CCNc1nc(O)nc(NCC)n1`, the ready biodegradability result was “not readily biodegradable”.
As to `CCCCCC`, the log10 Koa was 2.4, the log10 biodegradation half-life (days) amounted to 0.954, the log10 vapour pressure (mmHg) is 2.18 and the ready biodegradability result is on record as “readily biodegradable”.
`Fc1ccccc1I`: the boiling point was 189 °C and the melting point was -41.5 °C.
In the case of `O=C[C@H](O)C(O)[C@H](O)CO` (stereo in doubt), the log10 vapour pressure (mmHg) is -9.71.
In turn, `N#Cc1ccccc1N` had a boiling point of 263 °C and a melting point of 51 °C.
For `CC(Oc1c(Cl)cccc1Cl)C1=NCCN1` (stereo not given), the melting point stood at 127 °C.
In the case of `O=COCCOC=O`, the boiling point was 174 °C.
For the compound `CC(C1CC1)C(O)(Cn1cncn1)c1ccc(Cl)cc1` (stereo not given), the log10 vapour pressure (mmHg) was -6.59 and the melting point was found to be 108 °C.
For `IC(I)(I)I`, the melting point is 171 °C.
On the same count and under the same terms, the same measure for `OCc1cc(Cl)cc(Cl)c1`: 80.5 °C.
Consider `CC(=O)CC(C)(C)O`, for which the boiling point stood at 168 °C, the log10 vapour pressure (mmHg) stood at 0.233, the melting point is -44 °C and the ready biodegradability entry was “readily biodegradable”.
As to `CCCCN1CCOCC1`, the boiling point came to 214 °C and the melting point was -57.1 °C.
As for `c1cc(-c2ncco2)cc(-c2ncco2)c1`, the ready biodegradability result is recorded as “not readily biodegradable”.
On to `CCOC(=O)c1ccccc1C(=O)c1ccccc1`, for which the melting point is 59.5 °C.
`Nc1ccccc1C=O`: the melting point turned out to be 39 °C.
Same read-out and setting: next, `O=C(O)c1cncc(C(=O)O)c1`: 324 °C.
`C=CC(O)CC` (stereo not given) came in with a boiling point of 115 °C.
In the case of `CN(CC(=O)O)C(=O)COC(=O)c1ccccc1`, the melting point is 106 °C.
The compound `CC1CCCC(O)C1` (stereo not given) displayed a boiling point of 163 °C, a log10 Henry constant (atm·m³/mol) of -5.44 and a log10 vapour pressure (mmHg) of -0.32.
`CCCCCCCCCCCCCCCCCCOP1OCC2(CO1)COP(OCCCCCCCCCCCCCCCCCC)OC2` (stereo not given): the ready biodegradability entry is reported as “readily biodegradable”.
In the case of `CCCCC(CC)CCl` (stereo not given), the boiling point is 172 °C and the log10 vapour pressure (mmHg) stood at 0.0792.
In turn, `CCC(C)c1ccc(N)cc1` (stereo not given) yielded a boiling point of 238 °C.
Take `N#CC(Cl)(Cl)Cl`: the boiling point came out at 85.7 °C, the log10 vapour pressure (mmHg) came out at 1.87 and the melting point is -42 °C.
Taken in the same sequence, the figures for `CCCCOCC` were 92.3 °C, 1.71 and -124 °C.
Turning to `CC1(C)CC=CC1`, the boiling point came out at 88 °C.
With `CCCCCCCCCCCC(=O)N(CCO)CCO`, the ready biodegradability entry is given as “readily biodegradable”.
On to `O=C(O)C(=O)c1ccccc1`, for which the melting point came out at 66 °C.
`CCOP(=S)(OCC)Oc1ccc(S(C)=O)cc1` (stereo not given) displayed a log10 Koc (L/kg) of 2.52 and a log10 vapour pressure (mmHg) of -4.3.
With `CCCCOC(=O)CC#N`, the boiling point came to 231 °C.
The same measure, in the same setting: next, `CCO[Si](CC)(OCC)OCC`: 158 °C; `C=CC(=O)OC1CCCCC1C` (stereo not given): 210 °C.
`N[C@@H](CSCC(=O)O)C(=O)O`: the melting point stood at 206 °C.
As to `O=C(O)C(Br)(Br)Br`, the log10 Henry constant (atm·m³/mol) was -8.48 and the melting point came to 132 °C.
